Laboratory results: ChEMBL document CHEMBL4014333, “Discovery of Small Molecules for Repressing Cap-Independent Translation of Human Vascular Endothelial Growth Factor (hVEGF) as Novel Antitumor Agents” (J Med Chem, 2017)
Active and inactive are the calls of the source. The rule behind the calls is not given here.

Tests used:
[1] = Selectivity ratio of Kd for biotin-labeled hairpin DNA (unknown origin) to Kd for biotin-labeled human wild type internal ribosome entry site A RNA G-quadruplex
[2] = system: MCF7; experiment: Effect on human VEGF-A transcription expressed in human MCF7 cells assessed as Met luciferase gene expression at 0.1875 to 3 uM by RT-PCR analysis; format: functional, cell-based
[3] = species: Homo sapiens; experiment: Destabilization of human 5'-UGAAGAGUGUGAGUAGUA-3' RNA expressed in MCF7 cells assessed as down regulation of VEGF-A translation at up to 1.5 uM after 24 hrs by dual-luciferase reporter gene assay; format: cell-based
[4] = species: Homo sapiens; experiment: Binding affinity to wild type human internal ribosome entry site A RNA G-quadruplex at 1 uM after 24 hrs by spectrophotometric method
[5] = species: Homo sapiens; experiment: Destabilization of human VEGF-A promoter DNA up to 5 uM by CD spectral analysis
[6] = system: MCF7; experiment: Effect on human wild type internal ribosome entry site A RNA G-quadruplex transcription expressed in human MCF7 cells assessed as Met luciferase gene expression at 0.1875 to 1.5 uM after 20 hrs by RT-PCR analysis; format: functional, cell-based
[7] = system: MCF7; experiment: Effect on BG4 protein expression in human MCF7 cells up to 1.5 uM by Western blot method; format: ADME, cell-based
[8] = system: MCF7; experiment: Antitumor activity against human MCF7 cells xenografted in nude Balb/c mouse assessed as tumor volume at 7.5 mg/kg, ip qd for 20 days (Rvb >700 mm3); format: functional
[9] = Binding affinity to TBA DNA G-quadruplex (unknown origin) at 1 uM after 24 hrs by spectrophotometric method
[10] = species: Homo sapiens; experiment: Inhibition of BG4 protein binding to human wild type internal ribosome entry site A RNA G-quadruplex in MCF7 cells transfected with pcDNA3.1-BG4 plasmid at 2.5 to 5 uM after 24 hrs by qRT-PCR analysis; format: cell-based
[11] = species: Homo sapiens; experiment: Inhibition of BG4 antibody binding to internal ribosome entry site A RNA G-quadruplex in human MCF7 cells preincubated for 24 hrs followed by BG4 antibody addition measured after 12 hrs by dot blot hybridization assay; format: cell-based
[12] = species: Homo sapiens; experiment: Destabilization of human wild type internal ribosome entry site A RNA G-quadruplex expression in human MCF7 cells assessed as decrease in VEGF-A protein expression at 0.1875 to 3 uM by Western blot analysis; format: cell-based
[13] = species: Homo sapiens; experiment: Binding affinity to internal ribosome entry site A RNA G-quadruplex region of VEGF-A protein in human MDA-MB-231 cells assessed as VEGF-A protein induced cell migration at 3 uM after 24 hrs by MTT dye based Transwell assay relative to control
[14] = Binding affinity to 5'- FAM-labeled wild type human internal ribosome entry site A RNA G-quadruplex after 5 mins by MST analysis
[15] = species: Homo sapiens; experiment: Destabilization of human wild type 5'-FAM labeled internal ribosome entry site A RNA G-quadruplex at 2.5 to 10 uM measured after 3 hrs by electrophoresis mobility shift assay
[16] = Binding affinity to c-MYC Pu27 DNA G-quadruplex (unknown origin) at 1 uM after 24 hrs by spectrophotometric method
[17] = system: MCF7; experiment: Cytotoxicity against human MCF7 cells after 24 hrs relative to control; format: cell-based; conditions: mcf7, 24 h
[18] = species: Homo sapiens; experiment: Binding affinity to internal ribosome entry site A RNA G-quadruplex region of VEGF-A protein in human MDA-MB-231 cells assessed as inhibition of VEGF-A protein induced cell migration at 0.5 to 8 uM after 10 hrs by RTCA method; format: cell-based
[19] = Binding affinity to TERRA RNA G-quadruplex (unknown origin) at 1 uM after 24 hrs by spectrophotometric method

Selectivity ratio [1]: 23 | Activity [4]: Active | Activity [5]: Active | Activity [9]: inactive | Kd [14]: 1.29 µM | Activity [15]: Active | Activity [16]: inactive | Activity [19]: inactive
SMILES: CCN(CC)CCOc1ccc(Nc2nc(-c3ccccc3NC(=O)CCN3CCN(C)CC3)nc3ccccc23)cc1
Activity [2]: inactive | Activity [3]: inactive | Activity [6]: inactive | Activity [7]: Non-Toxic | Activity [8]: <300 mm3 | inhibition [10]: Active | inhibition [11]: Dose-dependent effect | Activity [12]: Active | Activity [13]: 25% | Activity [17]: 65.5% | Activity [18]: inactive
